Results reported in patent US20210024545A1, “SUBSTITUTED DIAZAHETERO-BICYCLIC COMPOUNDS AND THEIR USE” (Bayer Aktiengesellschaft, priority 2016, published 2021).
pIC50: −log10 of the molar value.

What was measured:
[1] = target: human TASK-1 (Homo sapiens, UniProt O14649); test: Inhibition of recombinant TASK-1 in stably transfected CHO cells, KCl-induced depolarization, voltage-sensitive dye (B-2); format: cell-based; set-up: expressed in transfected cells; host or cells: stably transfected CHO cells; details: depolarization induced by 40 mM potassium chloride, some mean values from multiple determinations
Protocol: (§1) B-2. Inhibition of Recombinant TASK-1 and TASK-3 In Vitro
(§2) The investigations on the inhibition of the recombinant TASK-1 and TASK-3 channels were conducted using stably transfected CHO cells. The compounds of the invention were tested here with administration of 40 mM of potassium chloride in the presence of a voltage-sensitive dye using the method described in detail in the following references [Whiteaker et al., Validation of FLIPR membrane potential dye for high-throughput screening of potassium channel modulators, J. Biomol. Screen. 6 (5), 305-312 (2001); Molecular Devices FLIPR Application Note: Measuring membrane potential using the FLIPR® membrane potential assay kit on Fluorometric Imaging Plate Reader (FLIPR®) systems, http://www.moleculardevices.com/reagents-supplies/assay-kits/ion-channels/flipr-membrane-potential-assay-kits]. The activity of the test substances was determined as their ability to inhibit a depolarization induced in the recombinant cells by 40 mM potassium chloride. The concentration which can block half of this depolarization is referred to as IC50).
(§3) Table 2 below lists the IC50 values from this assay determined for individual working examples of the invention (some as mean values from multiple independent individual determinations): […]

[2] = target: human TASK-3 (Homo sapiens, UniProt Q9NPC2); test: Inhibition of recombinant TASK-3 in stably transfected CHO cells, KCl-induced depolarization, voltage-sensitive dye (B-2); format: cell-based; set-up: expressed in transfected cells; host or cells: stably transfected CHO cells; details: depolarization induced by 40 mM potassium chloride, some mean values from multiple determinations
Protocol: as §1, §2, §3

human TASK-3, sequence (Q9NPC2 whole entry): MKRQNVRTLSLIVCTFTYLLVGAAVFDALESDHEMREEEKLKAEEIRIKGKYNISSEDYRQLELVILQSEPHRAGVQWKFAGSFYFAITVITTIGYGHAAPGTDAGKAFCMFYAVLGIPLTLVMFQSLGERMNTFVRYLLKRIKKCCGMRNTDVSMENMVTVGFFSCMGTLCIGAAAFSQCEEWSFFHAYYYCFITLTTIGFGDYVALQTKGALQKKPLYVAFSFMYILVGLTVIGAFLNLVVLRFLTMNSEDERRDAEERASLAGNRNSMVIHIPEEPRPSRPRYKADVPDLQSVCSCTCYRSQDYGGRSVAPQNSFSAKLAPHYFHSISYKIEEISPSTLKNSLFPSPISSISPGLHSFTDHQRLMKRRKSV
human TASK-1, sequence (O14649 whole entry): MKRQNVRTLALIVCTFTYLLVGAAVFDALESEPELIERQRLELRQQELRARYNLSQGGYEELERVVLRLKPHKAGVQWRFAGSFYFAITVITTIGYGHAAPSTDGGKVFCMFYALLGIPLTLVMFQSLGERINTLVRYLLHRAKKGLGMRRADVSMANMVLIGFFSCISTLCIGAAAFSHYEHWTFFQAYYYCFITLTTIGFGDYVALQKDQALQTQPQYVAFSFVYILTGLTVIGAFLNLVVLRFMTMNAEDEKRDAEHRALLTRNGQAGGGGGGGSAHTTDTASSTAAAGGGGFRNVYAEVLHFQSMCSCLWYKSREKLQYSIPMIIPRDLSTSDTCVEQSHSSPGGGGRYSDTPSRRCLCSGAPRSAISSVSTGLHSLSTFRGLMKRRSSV

| pIC50 [1] | pIC50 [2] | SMILES |
| --- | --- | --- |
| 7.14 | 8.74 | COc1cccc(C(=O)N2CC3CCC2CN3Cc2c(-c3ccc(Br)cc3)nc3ccccn23)n1 (racemic) [Example 151, (5-{[2-(4-Bromophenyl)imidazo[1,2-a]pyridin-3-yl]methyl}-2,5-diazabicyclo[2.2.2]oct-2-yl)(6-methoxypyridin-2-yl)methanone] |
| 5.54 | 7.12 | O=C(c1ccccc1F)N1CC2CCC1CN2Cc1c(-c2ccc(Br)cc2)nc2ccccn12 (racemic) [Example 152, (5-{[2-(4-Bromophenyl)imidazo[1,2-a]pyridin-3-yl]methyl}-2,5-diazabicyclo[2.2.2]oct-2-yl)(2-fluorophenyl)methanone] |
| 6.00 | 7.47 | COc1ccc(F)c(C(=O)N2CC3CCC2CN3Cc2c(-c3ccc(Br)cc3)nc3ccccn23)n1 (racemic) [Example 153, (5-{[2-(4-Bromophenyl)imidazo[1,2-a]pyridin-3-yl]methyl}-2,5-diazabicyclo[2.2.2]oct-2-yl)(3-fluoro-6-methoxypyridin-2-yl)methanone] |
| 7.48 | 8.74 | COc1ccc(Cl)c(C(=O)N2CC3CCC2CN3Cc2c(-c3ccc(Br)cc3)nc3ccccn23)n1 (racemic) [Example 199, (5-{[2-(4-Bromophenyl)imidazo[1,2-a]pyridin-3-yl]methyl}-2,5-diazabicyclo[2.2.2]oct-2-yl)(3-chlor-6-methoxypyridin-2-yl)methanone(racemate)] |
| 6.40 | 7.09 | CC(C)(C)OC(=O)N1CC2CCC1CN2Cc1c(-c2ccc(Cl)cc2)nc2ccccn12 (single isomer, unassigned) [Example 15, tert-Butyl 5-{[2-(4-chlorophenyl)imidazo[1,2-a]pyridin-3-yl]methyl}-2,5-diazabicyclo[2.2.2]octane-2-carboxylate] |
| 5.89 | 6.22 | CC(C)(C)OC(=O)N1CC2CCC1CN2Cc1c(-c2ccc(Cl)cc2)nc2ccccn12 (single isomer, unassigned) [Example 16, tert-Butyl 5-{[2-(4-chlorophenyl)imidazo[1,2-a]pyridin-3-yl]methyl}-2,5-diazabicyclo[2.2.2]octane-2-carboxylate] |
| 6.46 | 6.70 | O=C(c1ccccc1F)N1CC2CCC1CN2Cc1c(-c2ccc(Cl)cc2)nc2ccccn12 (single isomer, unassigned) [Example 35] |
| 6.17 | 6.60 | O=C(c1ccccc1F)N1CC2CCC1CN2Cc1c(-c2ccc(Cl)cc2)nc2ccccn12 (single isomer, unassigned) [Example 36] |
| 6.46 | 7.20 | O=C(C1CCCC1)N1CC2CCC1CN2Cc1c(-c2ccc(Cl)cc2)nc2ccccn12 (single isomer, unassigned) [Example 37] |
| 6.10 | 6.42 | O=C(C1CCCC1)N1CC2CCC1CN2Cc1c(-c2ccc(Cl)cc2)nc2ccccn12 (single isomer, unassigned) [Example 38] |
| 6.19 | 6.43 | COc1cccc(C(=O)N2CC3CCC2CN3Cc2c(-c3ccc(Cl)cc3)nc3ccccn23)c1 (single isomer, unassigned) [Example 39] |
| 6.27 | 6.98 | COc1cccc(C(=O)N2CC3CCC2CN3Cc2c(-c3ccc(Cl)cc3)nc3ccccn23)c1 (single isomer, unassigned) [Example 40] |
| 7.12 | 8.41 | O=C(c1cc(F)ccc1Cl)N1CC2CCC1CN2Cc1c(-c2ccc(Cl)cc2)nc2ccccn12 (single isomer, unassigned) [Example 41] |
| 6.06 | 7.77 | O=C(C1CCCCC1)N1CC2CCC1CN2Cc1c(-c2ccc(Cl)cc2)nc2ccccn12 (single isomer, unassigned) [Example 42] |
| 6.49 | 8.05 | O=C(C1CCC1)N1CC2CCC1CN2Cc1c(-c2ccc(Cl)cc2)nc2ccccn12 (single isomer, unassigned) [Example 43] |
| 6.89 | 8.48 | COc1ccccc1C(=O)N1CC2CCC1CN2Cc1c(-c2ccc(Cl)cc2)nc2ccccn12 (single isomer, unassigned) [Example 44] |
| 6.47 | 7.89 | COc1ccc(F)cc1C(=O)N1CC2CCC1CN2Cc1c(-c2ccc(Cl)cc2)nc2ccccn12 (single isomer, unassigned) [Example 45] |
| 7.14 | 8.30 | Cc1ccccc1C(=O)N1CC2CCC1CN2Cc1c(-c2ccc(Cl)cc2)nc2ccccn12 (single isomer, unassigned) [Example 46] |
| 7.15 | 7.82 | Cc1ccc(F)cc1C(=O)N1CC2CCC1CN2Cc1c(-c2ccc(Cl)cc2)nc2ccccn12 (single isomer, unassigned) [Example 47] |

| pIC50 [1] | pIC50 [2] | SMILES |
| --- | --- | --- |
| 6.41 | 7.77 | O=C(c1cccc(OC(F)(F)F)c1)N1CC2CCC1CN2Cc1c(-c2ccc(Cl)cc2)nc2ccccn12 (single isomer, unassigned) [Example 48] |
| 6.13 | 7.92 | O=C(c1cccc(Cl)c1)N1CC2CCC1CN2Cc1c(-c2ccc(Cl)cc2)nc2ccccn12 (single isomer, unassigned) [Example 49] |
| 6.54 | 7.47 | O=C(c1ccccn1)N1CC2CCC1CN2Cc1c(-c2ccc(Cl)cc2)nc2ccccn12 (single isomer, unassigned) [Example 51] |
| 6.77 | 8.00 | Cn1ccnc1C(=O)N1CC2CCC1CN2Cc1c(-c2ccc(Cl)cc2)nc2ccccn12 (single isomer, unassigned) [Example 52] |
| 6.85 | 7.47 | Cc1cccc(C(=O)N2CC3CCC2CN3Cc2c(-c3ccc(Cl)cc3)nc3ccccn23)c1 (single isomer, unassigned) [Example 53] |
| 6.33 | 7.12 | CCOc1cccc(C(=O)N2CC3CCC2CN3Cc2c(-c3ccc(Cl)cc3)nc3ccccn23)c1 (single isomer, unassigned) [Example 54] |
| 5.70 | 6.49 | O=C(c1ccncc1)N1CC2CCC1CN2Cc1c(-c2ccc(Cl)cc2)nc2ccccn12 (single isomer, unassigned) [Example 55] |
| 5.85 | 6.62 | CC(C)c1ccc(-c2nc3ccccn3c2CN2CC3CCC2CN3C(=O)c2ccccc2F)cc1 (single isomer, unassigned) [Example 57] |
| – | 6.21 | COc1cccc(C(=O)N2CC3CCC2CN3Cc2c(-c3ccc(C(C)C)cc3)nc3ccccn23)n1 (single isomer, unassigned) [Example 60] |
| 6.17 | 7.06 | COc1cccc(C(=O)N2CC3CCC2CN3Cc2c(-c3ccc(C(C)C)cc3)nc3ccccn23)n1 (single isomer, unassigned) [Example 61] |
| 5.55 | 6.12 | CC(C)c1ccc(-c2nc3ccccn3c2CN2CC3CCC2CN3C(=O)C2CCCC2)cc1 (single isomer, unassigned) [Example 62] |
| 6.31 | 6.85 | CC(C)c1ccc(-c2nc3ccccn3c2CN2CC3CCC2CN3C(=O)C2CCCC2)cc1 (single isomer, unassigned) [Example 63] |
| 5.96 | 6.96 | COc1ccc(F)c(C(=O)N2CC3CCC2CN3Cc2c(-c3ccc(Cl)cn3)nc3ccccn23)n1 (single isomer, unassigned) [Example 66] |
| 6.00 | 6.66 | COc1ccc(Cl)c(C(=O)N2CC3CCC2CN3Cc2c(-c3ccc(Cl)cn3)nc3ccccn23)n1 (single isomer, unassigned) [Example 67] |
| 5.02 | 6.17 | COc1ccc(F)c(C(=O)N2CC3CCC2CN3Cc2c(-c3ccc(C(C)C)nc3)nc3ccccn23)n1 (single isomer, unassigned) [Example 127, (3-Fluoro-6-methoxypyridin-2-yl)(5-{[2-(6-isopropylpyridin-3-yl)imidazo[1,2-a]pyridin-3-yl]methyl}-2,5-diazabicyclo[2.2.2]oct-2-yl)methanone] |
| 6.72 | 7.85 | COc1ccc(C)c(C(=O)N2CC3CCC2CN3Cc2c(-c3ccc(C(C)C)cc3)nc3ccccn23)n1 (single isomer, unassigned) [Example 137] |
| 7.12 | 8.17 | COc1ccc(C)c(C(=O)N2CC3CCC2CN3Cc2c(-c3ccc(Cl)cc3)nc3ccccn23)n1 (single isomer, unassigned) [Example 138] |
| 6.77 | 7.89 | COc1ccc(Cl)c(C(=O)N2C[C@@H]3CC[C@H]2CN3Cc2c(-c3ccc(Cl)cc3)nc3ccccn23)n1 (single isomer, unassigned; enantiomer 1) [Example 22] |

| SMILES | pIC50 [1] | pIC50 [2] |
| --- | --- | --- |
| Cc1cccc(Cl)c1NC(=O)N1C2CCC1CN(Cc1c(-c3ccc(Cl)cc3)nc3ccccn13)C2 [Example 165, N-(2-Chloro-6-methylphenyl)-3-{[2-(4-chlorophenyl)imidazo[1,2-a]pyridin-3-yl]methyl}-3,8-diazabicyclo[3.2.1]octane-8-carboxamide] | 7.60 | – |
| CCOC(=O)N1C2CCC1CN(Cc1c(-c3ccc(Cl)cc3)nc3ccccn13)C2 [Example 185, Ethyl 3-{[2-(4-chlorophenyl)imidazo[1,2-a]pyridin-3-yl]methyl}-3,8-diazabicyclo[3.2.1]octane-8-carboxylate] | 6.92 | – |
